In US10865191B2, “Heterocyclic compounds useful as modulators of TNF alpha” (BRISTOL-MYERS SQUIBB COMPANY, priority 2015, dated 2020):

What follows are molecules tested against TNFα (Homo sapiens, UniProt P01375) (assay: TNF induced HEK-Blue assay (NF-kB-driven secreted alkaline phosphatase reporter)). Details: TNFα 0.5 ng/mL, HEK-Blue-CD40L cells, 18 h; read-out: TNF induced HEK-Blue assay IC50 value.
Format: cell-based
Summary of the method: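 HEK-Blue-CD40L cells (NF-kB-driven SEAP reporter), 20,000/well, added after 30 min pre-incubation of compound (0.004–25 μM final) with TNFα 0.5 ng/mL final at 37 °C; 18 h incubation. SEAP read with QUANTI-Blue at 620 nm; IC50 from 4-parameter logistic fit, normalized to unstimulated and stimulated DMSO controls.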

TNFα, sequence (P01375 77-233 limits assumed): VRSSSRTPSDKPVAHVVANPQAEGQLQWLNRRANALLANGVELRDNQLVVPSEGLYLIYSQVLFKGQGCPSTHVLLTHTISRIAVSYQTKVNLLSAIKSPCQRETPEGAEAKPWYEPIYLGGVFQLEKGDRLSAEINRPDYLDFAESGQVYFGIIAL

| Compound | IC50 |
| --- | --- |
| Fc1ccc(Br)cc1[C@@H](Nc1c(Cl)cnc2ccccc12)C(F)F [Example 510, (R)—N-(1-(5-bromo-2-fluorophenyl)-2,2-difluoroethyl)-3-chloroquinolin-4-amine] | 1000 to 10000 nM |
| C[C@@H](Nc1c(Cl)cnc2ccccc12)c1cc(-c2cncc(N)c2)ccc1F [Example 511, (R)—N-(1-(5-(5-aminopyridin-3-yl)-2-fluorophenyl)ethyl)-3-chloroquinolin-4-amine] | < 1000 nM |
| C[C@@H](Nc1c(Cl)cnc2ccccc12)c1cc(-c2cccnc2N)ccc1F [Example 512, (R)—N-(1-(5-(2-aminopyridin-3-yl)-2-fluorophenyl)ethyl)-3-chloroquinolin-4-amine] | 10000 to 25000 nM |
| COc1cc(-c2ccc(F)c([C@@H](C)Nc3c(Cl)cnc4ccccc34)c2)c(OC)nn1 [Example 513, (R)-3-chloro-N-(1-(5-(3,6-dimethoxypyridazin-4-yl)-2-fluorophenyl)ethyl)quinolin-4-amine] | 1000 to 10000 nM |
| C[C@@H](Nc1c(Cl)cnc2ccccc12)c1cc(-c2ccc(C#N)nc2)ccc1F [Example 514, (R)-5-(3-(1-((3-chloroquinolin-4-yl)amino)ethyl)-4-fluorophenyl)picolinonitrile] | < 1000 nM |
| C[C@@H](Nc1c(Cl)cnc2ccccc12)c1cc(-c2ccnnc2)ccc1F [Example 515, (R)-3-chloro-N-(1-(2-fluoro-5-(pyridazin-4-yl)phenyl)ethyl)quinolin-4-amine] | 1000 to 10000 nM |
| Fc1ccc(Br)cc1CNc1c(Cl)cnc2ccccc12 [Example 516, N-(5-bromo-2-fluorobenzyl)-3-chloroquinolin-4-amine] | 10000 to 25000 nM |
| COc1ccc(F)c(CNc2c(Cl)cnc3ccccc23)c1 [Example 517, 3-chloro-N-(2-fluoro-5-methoxybenzyl)quinolin-4-amine] | 1000 to 10000 nM |
| Cc1ccc(-c2ccc(F)c([C@@H](C)Nc3c(Cl)cnc4ccccc34)c2)cn1 [Example 518, (R)-3-chloro-N-(1-(2-fluoro-5-(6-methylpyridin-3-yl)phenyl)ethyl)quinolin-4-amine] | < 1000 nM |
| C[C@@H](Nc1c(Cl)cnc2ccccc12)c1cc(-c2cnc(C3CC3)nc2)ccc1F [Example 519, (R)-3-chloro-N-(1-(5-(2-cyclopropylpyrimidin-5-yl)-2-fluorophenyl)ethyl) quinolin-4-amine] | 1000 to 10000 nM |
| COc1ncc(-c2ccc(F)c([C@@H](C)Nc3c(Cl)cnc4ccccc34)c2)cc1C#N [Example 520, (R)-5-(3-(1-((3-chloroquinolin-4-yl)amino)ethyl)-4-fluorophenyl)-2-methoxynicotinonitrile] | < 1000 nM |
| COc1ncc(-c2ccc(F)c([C@@H](C)Nc3c(Cl)cnc4ccccc34)c2)cc1N [Example 521, (R)—N-(1-(5-(5-amino-6-methoxypyridin-3-yl)-2-fluorophenyl)ethyl)-3-chloroquinolin-4-amine] | < 1000 nM |
| COc1cncc(-c2ccc(F)c([C@@H](C)Nc3c(Cl)cnc4ccccc34)c2)c1 [Example 522, (R)-3-chloro-N-(1-(2-fluoro-5-(5-methoxypyridin-3-yl)phenyl)ethyl)quinolin-4-amine] | < 1000 nM |
| CNc1ccncc1-c1ccc(F)c([C@@H](C)Nc2c(Cl)cnc3ccccc23)c1 [Example 523, (R)-3-chloro-N-(1-(2-fluoro-5-(4-(methylamino)pyridin-3-yl)phenyl)ethyl)quinolin-4-amine] | < 1000 nM |
| C[C@@H](Nc1c(Cl)cnc2ccccc12)c1cc(-c2cncn2C)ccc1F [Example 524, (R)-3-chloro-N-(1-(2-fluoro-5-(1-methyl-1H-imidazol-5-yl)phenyl)ethyl)quinolin-4-amine] | < 1000 nM |
| C[C@@H](Nc1c(Cl)cnc2ccccc12)c1cc(-c2ccnc3[nH]ccc23)ccc1F [Example 525, (R)-3-chloro-N-(1-(2-fluoro-5-(1H-pyrrolo[2,3-b]pyridin-4-yl)phenyl)ethyl) quinolin-4-amine] | 1000 to 10000 nM |
| C[C@@H](Nc1c(Cl)cnc2ccccc12)c1cc(-c2cccc(N)c2)ccc1F [Example 526, (R)—N-(1-(3′-amino-4-fluoro-[1,1′-biphenyl]-3-yl)ethyl)-3-chloroquinolin-4-amine] | 1000 to 10000 nM |
| COc1cc(-c2ccc(F)c([C@@H](C)Nc3c(Cl)cnc4ccccc34)c2)c(F)cn1 [Example 527, (R)-3-chloro-N-(1-(2-fluoro-5-(5-fluoro-2-methoxypyridin-4-yl)phenyl)ethyl)quinolin-4-amine] | 1000 to 10000 nM |
| C[C@@H](Nc1c(Cl)cnc2ccccc12)c1cc(-c2cc3ccccc3[nH]2)ccc1F [Example 528, (R)-3-chloro-N-(1-(2-fluoro-5-(1H-indol-2-yl)phenyl)ethyl)quinolin-4-amine] | 1000 to 10000 nM |
| Cc1ccncc1-c1ccc(F)c([C@@H](C)Nc2c(Cl)cnc3ccccc23)c1 [Example 529, (R)-3-chloro-N-(1-(2-fluoro-5-(4-methylpyridin-3-yl)phenyl)ethyl)quinolin-4-amine] | < 1000 nM |

| Compound | IC50 |
| --- | --- |
| Cc1nc2ccccc2c(N[C@H](C)c2cc(-c3cncnc3)ccc2F)c1Cl [Example 530, (R)-3-chloro-N-(1-(2-fluoro-5-(pyrimidin-5-yl)phenyl)ethyl)-2-methylquinolin-4-amine] | < 1000 nM |
| Cc1nc2ccccc2c(N[C@H](C)c2cc(-c3cccnc3)ccc2F)c1Cl [Example 531, (R)-3-chloro-N-(1-(2-fluoro-5-(pyridin-3-yl)phenyl)ethyl)-2-methylquinolin-4-amine] | < 1000 nM |
| C[C@@H](Nc1c(Cl)cnc2ccc(Br)cc12)c1cc(-c2cncnc2)ccc1F [Example 532, (R)-6-bromo-3-chloro-N-(1-(2-fluoro-5-(pyrimidin-5-yl)phenyl)ethyl)quinolin-4-amine] | < 1000 nM |
| Cc1nc2ccccc2c(N[C@H](C)c2cc(-c3cn[nH]c3)ccc2F)c1Cl [Example 533, (R)-3-chloro-N-(1-(2-fluoro-5-(1H-pyrazol-4-yl)phenyl)ethyl)-2-methylquinolin-4-amine] | < 1000 nM |
| Cc1ncc(-c2ccc(F)c([C@@H](C)Nc3c(Cl)c(C)nc4ccccc34)c2)cn1 [Example 534, (R)-3-chloro-N-(1-(2-fluoro-5-(2-methylpyrimidin-5-yl)phenyl)ethyl)-2-methylquinolin-4-amine] | < 1000 nM |
| Cc1ncc(-c2ccc(F)c([C@@H](C)Nc3c(Cl)cnc4ccccc34)c2)cn1 [Example 535, (R)-3-chloro-N-(1-(2-fluoro-5-(2-methylpyrimidin-5-yl)phenyl)ethyl)quinolin-4-amine] | < 1000 nM |
| C[C@@H](Nc1c(Cl)cnc2ccccc12)c1cc(-c2cnc(N(C)C)nc2)ccc1F [Example 536, (R)-3-chloro-N-(1-(5-(2-(dimethylamino)pyrimidin-5-yl)-2-fluorophenyl)ethyl)quinolin-4-amine] | 1000 to 10000 nM |
| C[C@@H](Nc1c(Cl)cnc2ccccc12)c1cc(-c2cnc3[nH]ccc3c2)ccc1F [Example 537, (R)-3-chloro-N-(1-(2-fluoro-5-(1H-pyrrolo[2,3-b]pyridin-5-yl)phenyl)ethyl)quinolin-4-amine] | < 1000 nM |
| Cc1nc2ccccc2c(N[C@H](C)c2cc(Br)ccc2F)c1Cl [Example 538, (R)—N-(1-(5-bromo-2-fluorophenyl)ethyl)-3-chloro-2-methylquinolin-4-amine] | 1000 to 10000 nM |
| C[C@@H](Nc1c(Cl)cnc2ccccc12)c1cc(-c2cccc(C#N)c2)ccc1F [Example 539, (R)-3′-(1-((3-chloroquinolin-4-yl)amino)ethyl)-4′-fluoro-[1,1′-biphenyl]-3-carbonitrile] | < 1000 nM |
| C[C@@H](Nc1c(Cl)cnc2ccc(-c3ccncc3)cc12)c1cc(-c2cncnc2)ccc1F [Example 540, (R)-3-chloro-N-(1-(2-fluoro-5-(pyrimidin-5-yl)phenyl)ethyl)-6-(pyridin-4-yl)quinolin-4-amine] | < 1000 nM |
| C[C@@H](Nc1c(Cl)cnc2ccccc12)c1cc(-c2cncc(C#N)c2)ccc1F [Example 541, (R)-5-(3-(1-((3-chloroquinolin-4-yl)amino)ethyl)-4-fluorophenyl)nicotinonitrile] | 1000 to 10000 nM |
| C[C@@H](Nc1c(Cl)cnc2ccccc12)c1cc(-c2cncs2)ccc1F [Example 542, (R)-3-chloro-N-(1-(2-fluoro-5-(thiazol-5-yl)phenyl)ethyl)quinolin-4-amine] | < 1000 nM |
| COc1ncc(-c2ccc(F)c([C@@H](C)Nc3c(Cl)cnc4ccccc34)c2)cn1 [Example 543, (R)-3-chloro-N-(1-(2-fluoro-5-(2-methoxypyrimidin-5-yl)phenyl)ethyl)quinolin-4-amine] | 10000 to 25000 nM |
| C[C@@H](Nc1c(Cl)cnc2ccc(F)cc12)c1cc(-c2cncnc2)ccc1F [Example 544, (R)-3-chloro-6-fluoro-N-(1-(2-fluoro-5-(pyrimidin-5-yl)phenyl)ethyl)quinolin-4-amine] | < 1000 nM |
| C[C@@H](Nc1c(Cl)cnc2ccc(Cl)cc12)c1cc(-c2cncnc2)ccc1F [Example 545, (R)-3,6-dichloro-N-(1-(2-fluoro-5-(pyrimidin-5-yl)phenyl)ethyl)quinolin-4-amine] | < 1000 nM |
| C[C@@H](Nc1ccnc2ccc(Br)cc12)c1cc(-c2cncnc2)ccc1F [Example 546, (R)-6-bromo-N-(1-(2-fluoro-5-(pyrimidin-5-yl)phenyl)ethyl)quinolin-4-amine] | 10000 to 25000 nM |
| C[C@@H](Nc1c(Cl)cnc2ccccc12)c1cc(-c2ccccc2N)ccc1F [Example 547, (R)—N-(1-(2′-amino-4-fluoro-[1,1′-biphenyl]-3-yl)ethyl)-3-chloroquinolin-4-amine] | 1000 to 10000 nM |
| COc1ccncc1-c1ccc(F)c([C@@H](C)Nc2c(Cl)cnc3ccccc23)c1 [Example 548, (R)-3-chloro-N-(1-(2-fluoro-5-(4-methoxypyridin-3-yl)phenyl)ethyl) quinolin-4-amine] | < 1000 nM |
| COc1ccccc1-c1ccc(F)c([C@@H](C)Nc2c(Cl)cnc3ccccc23)c1 [Example 549, (R)-3-chloro-N-(1-(4-fluoro-2′-methoxy-[1,1′-biphenyl]-3-yl)ethyl)quinolin-4-amine] | 1000 to 10000 nM |
